Laboratory results from patent publication US11013717B1, “Methods and compositions for treating cancer using SERCA pump inhibitors” (priority 2018, dated 2021).

Tested on: CD8+ T-cells isolated from human PBMCs
Experiment: Activation of anti-CD3/anti-CD28 stimulated CD8+ T-cells treated with SERCA inhibitors, cytokine release (IFNγ, TNFα) by intracellular staining flow cytometry
Format: cell-based
Conditions: for Fold Change % IFNγ+ Cells (Normalized to Bead Stimulated Only): overnight, anti-CD3/anti-CD28 bead stimulated human CD8+ T-cells; for T cell activation / interferon gamma (IFNγ) production / secretion by CD8+ T cells: human CD8+ T-cells stimulated with anti-CD3/anti-CD28 beads, overnight incubation, thapsigargin 1.5 μM, cyclopiazonic acid 3 μM, NS-1619 30-100 μM; for T cell activation: activation measured by cytokine release
Method: CD8+ T-cells were isolated from human PBMCs using negative magnetic bead selection (Stemcell Technologies). Cells stimulated with anti-CD3/anti-CD28 beads (Life Technologies) and were treated with different SERCA inhibitors: thapsigargin (1.5 μM), cyclopiazonic acid (3 μM), and NS-1619 (30-100 μM). All incubations were done overnight. Subsequent activation was measured by cytokine release using intracellular staining flow cytometry of IFNγ and TNFα, using fluorescently labeled antibodies (Biolegend).

## O=c1[nH]c2cc(C(F)(F)F)ccc2n1-c1cc(C(F)(F)F)ccc1O [NS-1619]
30 μM
  Fold Change % IFNγ+ Cells (Normalized to Bead Stimulated Only): 1.1 fold
100 μM
  Fold Change % IFNγ+ Cells (Normalized to Bead Stimulated Only): 2.68 fold
  T cell activation: led to T cell activation
  interferon gamma (IFNγ) production / secretion by CD8+ T cells: increased

## CC(=O)C1=C(O)[C@@H]2[C@H]3c4c[nH]c5cccc(c45)C[C@H]3C(C)(C)N2C1=O [cyclopiazonic acid]
3 μM
  Fold Change % IFNγ+ Cells (Normalized to Bead Stimulated Only): 2.38 fold

## C/C=C(/C)C(=O)O[C@H]1C(C)=C2[C@H]([C@@H]1OC(=O)CCCCCCC)[C@@](C)(OC(C)=O)C[C@H](OC(=O)CCC)[C@@]1(O)[C@H]2OC(=O)[C@@]1(C)O [thapsigargin]
1.5 μM
  Fold Change % IFNγ+ Cells (Normalized to Bead Stimulated Only): 2.08 fold
  T cell activation: led to T cell activation
  interferon gamma (IFNγ) production / secretion by CD8+ T cells: increased
